In patent US20230263822A1, “MODULATION OF FACTOR 11 EXPRESSION” (Ionis Pharmaceuticals, Inc., priority 2008, published 2023):
Strand notation (5' to 3'): a small letter for the sugar, then the base; units joined by * are phosphorothioate-linked, units joined directly phosphodiester-linked; [ ] holds rarer units or linkages, { } end groups; capitals alone tell only the bases. e = 2'-O-(2-methoxyethyl) (MOE); [5mC] = 5-methylcytosine; d = 2'-deoxy (DNA)

Legend:
human Factor 11 mRNA [1] = test: Antisense inhibition of human Factor 11 in HepG2 cells by microwalk gapmers, lipofectin, 75 nM (Example 3); format: cell-based
Procedure, shortened: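 HepG2 cells (10,000/well) were transfected via lipofectin with 75 nM 20-mer MOE gapmers (phosphorothioate, 5-methyl-C) for about 24 h. Factor 11 mRNA was measured by qRT-PCR, normalized to RIBOGREEN total RNA, and given as percent inhibition versus untreated cells.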

human Factor 11 mRNA [2] = test: Dose-dependent inhibition of human Factor 11 in HepG2 cells, lipofectin 9.375-75 nM (Example 4); format: cell-based; settings: for percent inhibition of Factor 11 at 9.375 nM / percent inhibition of Factor 11 at 18.75 nM / percent inhibition of Factor 11 at 37.5 nM / percent inhibition of Factor 11 at 75 nM: relative to untreated control cells
Procedure, shortened: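 HepG2 cells transfected via lipofectin with antisense oligonucleotide at 9.375, 18.75, 37.5 or 75 nM for about 16 h. Factor 11 mRNA quantified by real-time RT-PCR (primer probe set RTS 2966) and normalized to total RNA (RIBOGREEN). Results expressed as percent inhibition versus untreated cells.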

human Factor 11 mRNA [3] = test: Dose-dependent inhibition of human Factor 11 in HepG2 cells, electroporation 0.7-20 uM (Example 4); format: cell-based; settings: for percent inhibition of Factor 11 at 0.7 μM / percent inhibition of Factor 11 at 2.2 μM / percent inhibition of Factor 11 at 6.7 μM / percent inhibition of Factor 11 at 20 μM: relative to untreated control cells
Procedure, shortened: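 HepG2 cells electroporated with antisense gapmers at 0.7, 2.2, 6.7 and 20 μM, treated ~16 h. Factor 11 mRNA quantified by qRT-PCR (primer probe set RTS 2966), normalised to RIBOGREEN total RNA; expressed as percent inhibition versus untreated control cells.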

Factor 11 mRNA = Factor 11 mRNA in cynomolgus monkey liver, day 55 (Example 46); format: in vivo, cynomolgus monkeys; settings: for % inhibition of Factor 11 mRNA in liver relative to the PBS control: 25 mg/kg subcutaneously, primer probe set LTS00301
Protocol: Groups, each consisting of two male and two female monkeys, were injected subcutaneously with 25 mg/kg of ISIS 416850, ISIS 449709, ISIS 445522, ISIS 449710, ISIS 449707, ISIS 449711, ISIS 449708, 416858, and ISIS 445531. Antisense oligonucleotide was administered to the monkeys at 25 mg/kg three times per week for week 1 and 25 mg/kg twice per week for weeks 2 to 8. A control group, consisting of two male and two female monkeys was injected subcutaneously with PBS according to the same dosing regimen. Body weights were taken 14 days and 7 days before the start of treatment and were then measured weekly throughout the treatment period. Blood samples were collected 14 days and 5 days before the start of treatment and subsequently several times during the dosing regimen for PT and aPTT measurements, and measurement of various hematologic factors. On day 55, the monkeys were euthanized by exsanguination while under deep anesthesia, and organs harvested for further analysis.
On day 55, RNA was extracted from liver tissue for real-time PCR analysis of Factor 11 using primer probe set LTS00301. Results are presented as percent inhibition of Factor 11, relative to PBS control.

[4] = HepG2 cells, lipofectin, gapmers targeted to nucleobases 1275 to 1318 of SEQ ID NO: 1
[5] = HepG2, lipofectin, ~24 h, gapmers targeted to nucleobases 656 to 704 of SEQ ID NO: 1

Substance	% inhibition (human Factor 11 mRNA [1]; HepG2 cells, lipofectin, gapmers targeted to nucleobases 738 to 762 of SEQ ID NO: 1) [%]	IC50 (human Factor 11 mRNA [2]) [nM]	percent inhibition of Factor 11 at 9.375 nM (human Factor 11 mRNA [2]) [%]	percent inhibition of Factor 11 at 18.75 nM (human Factor 11 mRNA [2]) [%]	percent inhibition of Factor 11 at 37.5 nM (human Factor 11 mRNA [2]) [%]	percent inhibition of Factor 11 at 75 nM (human Factor 11 mRNA [2]) [%]	IC50 (human Factor 11 mRNA [3]) [nM]	percent inhibition of Factor 11 at 0.7 μM (human Factor 11 mRNA [3]) [%]	percent inhibition of Factor 11 at 2.2 μM (human Factor 11 mRNA [3]) [%]	percent inhibition of Factor 11 at 6.7 μM (human Factor 11 mRNA [3]) [%]	percent inhibition of Factor 11 at 20 μM (human Factor 11 mRNA [3]) [%]	% inhibition (human Factor 11 mRNA [1]; [4]) [%]	% inhibition (human Factor 11 mRNA [1]; [5]) [%]	% inhibition (human Factor 11 mRNA [1]; HepG2 cells, lipofectin, gapmers targeted to nucleobases 1018 to 1042 of SEQ ID NO: 1) [%]	% inhibition of Factor 11 mRNA in liver relative to the PBS control (Factor 11 mRNA) [%]	Factor 11 mRNA in liver vs PBS control (Factor 11 mRNA; cynomolgus monkeys, 25 mg/kg)
412206 (antisense e[5mC]*e[5mC]*eG*eT*eG*d[5mC]*dA*dT*d[5mC]*dT*dT*dT*d[5mC]*dT*dT*eG*eG*e[5mC]*eA*eT) [compound 412206]	93	21	24	47	69	86	2700	22	39	81	94					
412223 (antisense ACAGTTTCTGGCAGGCCTCG; 5-10-5 MOE gapmer, further chemistry not given here) [compound 412223]												85				
412224 (antisense GCATTGGTGCACAGTTTCTG; 5-10-5 MOE gapmer, further chemistry not given here) [compound 412224]												93				
412225 (antisense GCAGCGGACGGCATTGGTGC; 5-10-5 MOE gapmer, further chemistry not given here) [compound 412225]												86				
413482 (antisense GGACGGCATTGGTGCACAGT; 5-10-5 MOE gapmer, further chemistry not given here) [compound 413482]												89				
416825 (antisense GCCCTTCATGTCTAGGTCCA; 5-10-5 gapmer, further chemistry not given here) [compound 416825]		20	23	52	73	92	1300	27	74	92	98		92			
416826 (antisense ATGCCCTTCATGTCTAGGTC; 5-10-5 gapmer, further chemistry not given here) [compound 416826]		29	8	36	58	84	3200	2	47	86	82		94			
416838 (antisense GCAACCGGGATGATGAGTGC; 5-10-5 gapmer, further chemistry not given here) [compound 416838]		19	31	51	64	86	5100	5	30	55	83			94		
416856 (antisense GGCATTGGTGCACAGTTTCT; 5-10-5 gapmer, further chemistry not given here) [compound 416856]		27	21	45	58	74	5100	0	29	47	93	95				
416864 (antisense GGCAGCGGACGGCATTGGTG; 5-10-5 gapmer, further chemistry not given here) [compound 416864]		26	18	43	62	78	1400	32	65	78	90	93				
416892 (antisense GCCCTTCATGTCTAGGTCCA; 3-14-3 chimeric gapmer, further chemistry not given here) [compound 416892]		23	16	50	70	85	2500	14	52	82	92		100			
416925 (antisense GGTGCACAGTTTCTGGCAGG; 3-14-3 gapmer chemistry, further chemistry not given here) [compound 416925]		30	13	38	59	75	3900	0	40	76	80	98				
416999 (antisense GCACAGTTTCTGGCAGGCCT; 2-13-5 gapmer chemistry, further chemistry not given here) [compound 416999]		30	24	37	55	73	2800	20	42	77	88	92				
417002 (antisense GGTGCACAGTTTCTGGCAGG; 2-13-5 gapmer chemistry, further chemistry not given here) [compound 417002]		19	35	52	67	70	2200	32	38	82	91	92				
417003 (antisense TGGTGCACAGTTTCTGGCAG; 2-13-5 gapmer chemistry, further chemistry not given here) [compound 417003]		33	26	44	60	56	3900	0	34	75	89	89				
445522 (antisense eG*e[5mC]*eA*e[5mC]*eA*dG*dT*dT*dT*d[5mC]*dT*dG*dG*e[5mC]*eA*eG*eG*e[5mC]) [compound 445522]															89	
445531 (antisense eG*eG*e[5mC]*eA*eT*dT*dG*dG*dT*dG*d[5mC]*dA*d[5mC]*eA*eG*eT*eT*eT) [compound 445531]															66	
ISIS 416850: MOE gapmer, nucleobases 1275 to 1318 of SEQ ID NO: 1 (Table 8) (antisense TGCACAGTTTCTGGCAGGCC; MOE gapmer, wing and gap sizes not given here)																significant reduction of Factor 11 mRNA
